# What was measured:
# Assay in all cases: relative viability (nuclei count vs DMSO), 5 days (fraction); higher = more cells survive
# [1] = compound: COc1cc2nccc(Oc3ccc(NC(=O)C4(C(=O)Nc5ccc(F)cc5)CC4)cc3)c2cc1OC [Cabozantinib] + Nc1nc2[nH]cc(CCc3ccc(C(=O)N[C@@H](CCC(=O)O)C(=O)O)cc3)c2c(=O)[nH]1 [Pemetrexed] (partner 0.2 µM)
# Summary of the method: (§1)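 One day after seeding in 1536-well plates, lung cancer cell lines were dosed by pin tool. Dosing was either single-drug or a fixed anchor-drug dose plus five library-drug doses (not always all listed) in √10 steps. After 5 days, nuclei were stained in one fix-and-stain step and counted on 4× images, and relative viability is the nuclei count of treated wells over that of vehicle wells, given as the median of duplicate plates.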
# Kobe2602 + Linsitinib = compound: C1=CC(=CC=C1NC(=S)NNC2=C(C=C(C=C2[N+](=O)[O-])C(F)(F)F)[N+](=O)[O-])F [Kobe2602] + C[C@]1(O)C[C@@H](c2nc(-c3ccc4ccc(-c5ccccc5)nc4c3)c3c(N)nccn32)C1 [Linsitinib] (partner 1 µM)
# Summary of the method: as §1
# Kobe2602 + Bortezomib = compound: C1=CC(=CC=C1NC(=S)NNC2=C(C=C(C=C2[N+](=O)[O-])C(F)(F)F)[N+](=O)[O-])F [Kobe2602] + CC(C)C[C@H](NC(=O)[C@H](Cc1ccccc1)NC(=O)c1cnccn1)B(O)O [Bortezomib] (partner 0.002 µM)
# Summary of the method: as §1
# Zosuquidar + OSI-027 = compound: O[C@@H](COc1cccc2ncccc12)CN1CCN([C@@H]2c3ccccc3[C@@H]3[C@H](c4ccccc42)C3(F)F)CC1 [Zosuquidar] + COc1cccc2cc(-c3nc([C@H]4CC[C@H](C(=O)O)CC4)n4ncnc(N)c34)[nH]c12 [OSI-027] (partner 0.5 µM)
# Summary of the method: as §1
Cell Line,relative viability ([1]; first compound 0.02 µM),relative viability ([1]; first compound 0.06325 µM),relative viability ([1]; first compound 0.2 µM),relative viability ([1]; first compound 0.6325 µM),relative viability ([1]; first compound 2 µM),relative viability (Kobe2602 + Linsitinib; first compound 0.2 µM),relative viability (Kobe2602 + Linsitinib; first compound 0.6325 µM),relative viability (Kobe2602 + Linsitinib; first compound 2 µM),relative viability (Kobe2602 + Linsitinib; first compound 6.325 µM),relative viability (Kobe2602 + Linsitinib; first compound 20 µM),relative viability (Kobe2602 + Bortezomib; first compound 0.2 µM),relative viability (Kobe2602 + Bortezomib; first compound 0.6325 µM),relative viability (Kobe2602 + Bortezomib; first compound 2 µM),relative viability (Kobe2602 + Bortezomib; first compound 6.325 µM),relative viability (Kobe2602 + Bortezomib; first compound 20 µM),relative viability (Zosuquidar + OSI-027; first compound 0.01 µM),relative viability (Zosuquidar + OSI-027; first compound 0.03162 µM),relative viability (Zosuquidar + OSI-027; first compound 0.1 µM),relative viability (Zosuquidar + OSI-027; first compound 0.3162 µM),relative viability (Zosuquidar + OSI-027; first compound 1 µM)
NCI-H2085,0.9,0.974,0.737,0.866,0.744,0.926,0.829,0.864,0.977,0.97,1.07,1.08,0.99,1.07,1.11,0.707,0.779,0.468,0.84,0.746
NCI-H2087,0.612,0.711,0.614,0.752,0.665,1.11,0.864,0.882,0.939,0.94,0.778,0.626,0.644,0.851,0.83,0.607,,0.432,0.694,0.587
NCI-H2126,0.59,0.666,0.689,0.658,0.704,0.718,0.659,0.7,0.704,0.765,1.14,1.09,1.11,1.19,1.11,0.736,0.982,,0.684,0.787
NCI-H2228,0.348,0.305,0.338,0.283,0.276,0.576,0.733,0.809,0.756,0.598,1.11,0.849,0.953,0.947,1.12,0.614,0.635,0.604,0.745,0.428
NCI-H2347,0.422,0.481,0.429,0.442,0.371,0.924,0.884,0.947,0.997,1.03,1.16,1.01,0.879,0.827,1.44,0.434,0.398,0.238,0.481,0.475
NCI-H2405,0.818,1.13,1.08,1.09,1.02,0.961,1.06,0.932,0.971,0.994,1.05,0.999,0.936,0.968,0.999,0.67,0.656,0.503,0.713,0.631
NCI-H3122,0.212,0.203,0.195,0.199,0.209,1.01,1.05,1.01,1.06,1.11,1.09,0.96,0.93,1.04,1.08,0.921,1.03,,1.36,0.936
PC-3 [JPC-3],0.971,1.43,,1.07,1.2,0.952,0.872,0.965,0.976,0.956,0.905,0.812,0.766,0.871,0.795,0.738,0.787,0.562,0.789,0.796
PC-14,0.113,0.141,,0.126,0.129,0.946,0.986,0.929,0.94,0.929,0.814,0.848,0.818,0.837,0.859,0.903,0.714,0.826,1.02,0.78
RERF-LC-KJ,0.471,0.463,0.402,0.347,0.463,0.826,0.868,0.814,0.829,0.824,1.11,1.15,1.15,1.15,1.15,0.543,0.565,0.634,0.691,0.623
SK-LU-1,1.1,1.1,0.9,0.926,0.9,1.05,1.15,1.04,1.04,1.27,1.38,1.55,1.18,1.37,1.61,0.369,0.35,0.401,0.432,0.33
SW 1573,0.905,0.815,0.924,0.951,0.763,0.846,0.767,0.811,0.769,0.864,1.21,0.967,1.06,0.945,1.18,0.624,0.609,0.81,1,0.689

# From the supplement of paper PMC10307832
